tested on: fibroblast to myofibroblast transdifferentiation (primary human lung fibroblasts and primary rodent HSCs); assay: High content imaging and western based assay of fibroblast to myofibroblast transdifferentiation (α-SMA); assay type: cell-based; conditions: graded, TGF-β induced fibroblast to myofibroblast transdifferentiation
From the text: A high content imaging assay, based on α-SMA staining and cell morphological changes associated with fibroblast to myofibroblast transdifferentiation, was established using primary human lung fibroblasts and primary rodent HSCs. Conditions, involving serum starvation and subsequent TGF-β treatment, were identified that facilitate robust in vitro transdifferentiation in a miniaturized (384 well plate) format that is amenable to high throughput small molecule screening. A selective ALK-5 TGF-β1 receptor inhibitor (SB-431542) was used as a positive control. […] This assay was used to identify a hit compound (itraconazole) and was used to evaluate focused panels of itraconazole analogues generated from medicinal chemistry efforts.
The activity of Itraconazole and its analogues was confirmed by analyzing changes in gene expression of multiple genes associated with fibroblast to myofibroblast transdifferentiation using biochemical methods (i.e., Western blot and RT-PCR). These 4-day assays were used to evaluate sets of 6 compounds at a time in 4-point dose response fashion.
After 24 hour incubation, cells were treated with the indicated doses of itraconazole for 48 hours in the presence of 10 ng/mL of TGF-β1 in hepatic stellate medium. Following fixation and staining with an anti smooth muscle actin antibody, cell morphology was analyzed with a Cellomics cell insight imaging reader (FIG. 1 for representative images). Cells were analyzed for mean cellular area of a-SMA staining (FIG. 5a) or mean fluorescence intensity of SMA staining (FIG. 5b).
After 24 incubation, medium was changed to assay medium containing TGF-β1 (10 ng/mL) and simultaneously treated with itraconazole (10 μM), SB431542 (10 μM) or vehicle control (FIG. 6).

SMILES	EC50
CCC(C)n1ncn(-c2ccc(N3CCN(c4ccc(OC[C@H]5CO[C@@](Cn6cncn6)(c6ccc(F)cc6F)O5)cc4)CC3)cc2)c1=O (mixture of isomers) [Compound 7]	5 to 30 µM
CCC(C)n1ncn(-c2ccc(N3CCN(c4ccc(OC[C@@H]5CO[C@](Cn6nc7ccccc7n6)(c6ccc(Cl)cc6Cl)O5)cc4)CC3)cc2)c1=O (mixture of isomers) [Compound 17]	5 to 30 µM
CCC(C)n1ncn(-c2ccc(N3CCN(c4ccc(OC[C@@H]5CO[C@](Cn6nccn6)(c6ccc(Cl)cc6Cl)O5)cc4)CC3)cc2)c1=O (mixture of isomers) [Compound 18]	5 to 30 µM
CC[C@@H]([C@H](C)O)n1ncn(-c2ccc(N3CCN(c4ccc(OC[C@@H]5CO[C@@](Cn6cncn6)(c6ccc(F)cc6F)C5)cc4)CC3)cc2)c1=O (racemic) [POS, reference compound]	5 to 30 µM
CCC(C)n1cnn(-c2ccc(N3CCN(c4ccc(OC[C@@H]5CO[C@@](Cn6nccn6)(c6ccc(F)cc6F)O5)cc4)CC3)cc2)c1=O (stereo partly shown) [Compound 3]	5 to 30 µM
CCC(C)n1cnn(-c2ccc(N3CCN(c4ccc(OC[C@@H]5CO[C@@](Cn6ccc(C)n6)(c6ccc(F)cc6F)O5)cc4)CC3)cc2)c1=O (stereo partly shown) [Compound 4]	5 to 30 µM
CCC(C)n1cnn(-c2ccc(N3CCN(c4ccc(OC[C@@H]5CO[C@@](Cn6cnc(C)n6)(c6ccc(F)cc6F)O5)cc4)CC3)cc2)c1=O (stereo partly shown) [Compound 5]	5 to 30 µM
CCC(C)n1ncn(-c2ccc(N3CCN(c4ccc(OC[C@@H]5CO[C@@](Cn6cncn6)(c6ccc(F)cc6F)O5)cc4)CC3)cc2)c1=O (stereo partly shown) [Compound 6]	0.5 to 5 µM
CCC(C)n1cnn(-c2ccc(N3CCN(c4ccc(OC[C@@H]5CO[C@@](Cn6nnc7ccccc76)(c6ccc(F)cc6F)O5)cc4)CC3)cc2)c1=O (stereo partly shown) [Compound 8]	0.5 to 5 µM
CCC(C)n1ncn(-c2ccc(N3CCN(c4ccc(OC[C@@H]5CO[C@@](Cn6cnc(Br)n6)(c6ccc(F)cc6F)O5)cc4)CC3)cc2)c1=O (stereo partly shown) [Compound 9]	5 to 30 µM
CCC(C)n1ncn(-c2ccc(N3CCN(c4ccc(OC[C@@H]5CO[C@@](Cn6cnc(C(F)(F)F)n6)(c6ccc(F)cc6F)O5)cc4)CC3)cc2)c1=O (stereo partly shown) [Compound 10]	5 to 30 µM
CCC(C)n1ncn(-c2ccc(N3CCN(c4ccc(OC[C@@H]5CO[C@@](Cn6nc(Br)nc6Br)(c6ccc(F)cc6F)O5)cc4)CC3)cc2)c1=O (stereo partly shown) [Compound 11]	5 to 30 µM
CCC(C)n1cnn(-c2ccc(N3CCN(c4ccc(OC[C@@H]5CO[C@@](Cn6nc7ccccc7n6)(c6ccc(F)cc6F)O5)cc4)CC3)cc2)c1=O (stereo partly shown) [Compound 12]	5 to 30 µM
CC(C)n1ncn(-c2ccc(N3CCN(c4ccc(OC[C@@H]5CO[C@@](Cn6cncn6)(c6ccc(F)cc6F)O5)cc4)CC3)cc2)c1=O [Compound 13]	5 to 30 µM
CC(C)Cn1ncn(-c2ccc(N3CCN(c4ccc(OC[C@@H]5CO[C@@](Cn6cncn6)(c6ccc(F)cc6F)O5)cc4)CC3)cc2)c1=O [Compound 14]	5 to 30 µM
CCC(C)n1cnn(-c2ccc(N3CCN(c4ccc(OC[C@@H]5CO[C@@](Cn6nc7ccccc7n6)(c6ccc(Cl)cc6Cl)O5)cc4)CC3)cc2)c1=O (stereo partly shown) [Compound 16]	5 to 30 µM
CCC(C)n1ncn(-c2ccc(N3CCN(c4ccc(OC[C@@H]5CO[C@@](Cn6cnc7ccccc76)(c6ccc(Cl)cc6Cl)O5)cc4)CC3)cc2)c1=O (stereo partly shown) [Compound 20]	0.5 to 5 µM
CCC(C)n1ncn(-c2ccc(N3CCN(c4ccc(OC[C@@H]5CO[C@@](Cn6nccn6)(c6ccc(Cl)cc6Cl)O5)cc4)CC3)cn2)c1=O (stereo partly shown) [Compound 25]	5 to 30 µM
CC(O)C(C)n1ncn(-c2ccc(N3CCN(c4ccc(OC[C@@H]5CO[C@@](Cn6nccn6)(c6ccc(Cl)cc6Cl)O5)cc4)CC3)cc2)c1=O (stereo partly shown) [Compound 28]	0.5 to 5 µM
CC(O)C(C)n1ncn(-c2ccc(N3CCN(c4ccc(OC[C@@H]5CO[C@@](Cc6ccnnc6)(c6ccc(Cl)cc6Cl)O5)cc4)CC3)cc2)c1=O (stereo partly shown) [Compound 29]	< 0.5 µM
CCC(C)n1ncn(-c2ccc(N3CCN(c4ccc(OC[C@@H]5CO[C@@](Cn6nccn6)(c6cc(Cl)cc(Cl)c6)O5)cc4)CC3)cc2)c1=O (stereo partly shown) [Compound 31]	0.5 to 5 µM
CCC(C)n1ncn(-c2ccc(N3CCN(c4ccc(OC[C@@H]5CO[C@@](Cn6nccn6)(c6cccc(Cl)c6)O5)cc4)CC3)cc2)c1=O (stereo partly shown) [Compound 33]	0.5 to 5 µM
CCc1ccc([C@]2(Cn3nccn3)OC[C@@H](COc3ccc(N4CCN(c5ccc(-n6cnn(C(C)CC)c6=O)cc5)CC4)cc3)O2)cc1 (stereo partly shown) [Compound 34]	0.5 to 5 µM
CCC(C)n1ncn(-c2ccc(N3CCN(c4ccc(OC[C@@H]5CO[C@@](Cn6nccn6)(c6ccc(Br)cc6)O5)cc4)CC3)cc2)c1=O (stereo partly shown) [Compound 35]	0.5 to 5 µM
CCC(C)n1ncn(-c2ccc(N3CCN(c4ccc(OC[C@@H]5CO[C@@](Cn6nccn6)(c6ccc(C#N)cc6)O5)cc4)CC3)cc2)c1=O (stereo partly shown) [Compound 37]	0.5 to 5 µM

SMILES	EC50
CCC(C)n1ncn(-c2ccc(N3CCN(c4ccc(OC[C@@H]5CO[C@@](Cn6nccn6)(c6ccc(C(F)(F)F)cc6)O5)cc4)CC3)cc2)c1=O (stereo partly shown) [Compound 38]	0.5 to 5 µM
CCC(C)n1ncn(-c2ccc(N3CCN(c4ccc(OC[C@@H]5CO[C@@](Cn6nccn6)(c6ccc(OC)cc6)O5)cc4)CC3)cc2)c1=O (stereo partly shown) [Compound 39]	0.5 to 5 µM
CCC(C)n1ncn(-c2ccc(N3CCN(c4ccc(OC[C@@H]5CO[C@@](Cn6nccn6)(c6ccc(C)cc6)O5)cc4)CC3)cc2)c1=O (stereo partly shown) [Compound 40]	0.5 to 5 µM
CCC(C)n1ncn(-c2ccc(N3CCN(c4ccc(OC[C@@H]5CO[C@@](Cn6nccn6)(c6ccccc6C(F)(F)F)O5)cc4)CC3)cc2)c1=O (stereo partly shown) [Compound 43]	5 to 30 µM
CCC(C)n1ncn(-c2ccc(N3CCN(c4ccc(OC[C@@H]5CO[C@@](Cn6nccn6)(c6ccc(S(C)(=O)=O)cc6)O5)cc4)CC3)cc2)c1=O (stereo partly shown) [Compound 44]	5 to 30 µM
CCC(C)n1ncn(-c2ccc(N3CCN(c4ccc(OC[C@@H]5CO[C@@](Cn6nccn6)(c6ccccc6OC)O5)cc4)CC3)cc2)c1=O (stereo partly shown) [Compound 45]	5 to 30 µM
CCC(C)n1ncn(-c2ccc(N3CCN(c4ccc(OC[C@@H]5CO[C@@](Cn6nccn6)(c6ccc(Cl)cc6Cl)O5)c(C)c4)CC3)cc2)c1=O (stereo partly shown) [Compound 46]	5 to 30 µM
CCC(C)n1ncn(-c2ccc(N3CCN(c4ccc(OC[C@@H]5CO[C@@](Cn6nccn6)(c6ccc(Cl)cc6Cl)O5)c(OC)c4)CC3)cc2)c1=O (stereo partly shown) [Compound 47]	5 to 30 µM
CCC(C)n1ncn(-c2ccc(N3CCN(c4ccc(OC[C@@H]5CO[C@@](Cn6nccn6)(c6ccc(Cl)cc6Cl)O5)c(Cl)c4)CC3)cc2)c1=O (stereo partly shown) [Compound 48]	0.5 to 5 µM
CCC(C)n1ncn(-c2ccc(N3CCN(c4ccc(OC[C@@H]5CO[C@@](Cn6nccn6)(c6ccc(Cl)cc6Cl)O5)cc4C)CC3)cc2)c1=O (stereo partly shown) [Compound 50]	0.5 to 5 µM
CCC(C)n1ncn(-c2ccc(N3CCN(c4ccc(OC[C@@H]5CO[C@@](Cn6nccn6)(c6ccc(Cl)cc6Cl)O5)cc4OC)CC3)cc2)c1=O (stereo partly shown) [Compound 51]	0.5 to 5 µM
CCC(C)n1ncn(-c2ccc(N3CCN(c4ccc(OC[C@@H]5CO[C@@](Cn6nccn6)(c6ccc(Cl)cc6Cl)O5)cc4C#N)CC3)cc2)c1=O (stereo partly shown) [Compound 52]	0.5 to 5 µM
CCC(C)n1ncn(-c2ccc(N3CCN(c4ccc(OC[C@@H]5CO[C@@](Cn6nccn6)(c6ccc(Cl)cc6Cl)O5)cc4Cl)CC3)cc2)c1=O (stereo partly shown) [Compound 53]	0.5 to 5 µM
CCC(C)n1ncn(-c2ccc(N3CCN(c4ccc(OC[C@@H]5CO[C@@](Cn6nccn6)(c6ncccn6)O5)cc4)CC3)cc2)c1=O (stereo partly shown) [Compound 56]	5 to 30 µM
CCC(C)n1ncn(-c2ccc(N3CCN(c4ccc(OC[C@@H]5CO[C@@](Cn6nccn6)(c6cnccn6)O5)cc4)CC3)cc2)c1=O (stereo partly shown) [Compound 57]	5 to 30 µM
CCC(C)n1ncn(-c2ccc(N3CCN(c4ccc(OC[C@@H]5CO[C@@](Cn6nccn6)(C6CCCCC6)O5)cc4)CC3)cc2)c1=O (stereo partly shown) [Compound 58]	5 to 30 µM
CCC(C)n1ncn(-c2ccc(N3CCN(c4ccc(OC[C@@H]5CO[C@@](Cn6nccn6)(c6cccc7ccccc67)O5)cc4)CC3)cc2)c1=O (stereo partly shown) [Compound 63]	5 to 30 µM
CCC(C)n1ncn(-c2ccc(N3CCN(c4ccc(OC[C@@H]5CO[C@@](Cn6nccn6)(c6ccc(-c7ccccc7)cc6)O5)cc4)CC3)cc2)c1=O (stereo partly shown) [Compound 72]	5 to 30 µM
CCC(C)n1ncn(-c2ccc(N3CCN(c4ccc(OC[C@@H]5CO[C@@](Cn6nccn6)(c6ccccn6)O5)cc4)CC3)cc2)c1=O (stereo partly shown) [Compound 75]	5 to 30 µM
CCC(C)n1ncn(-c2ccc(N3CCN(c4ccc(OC[C@@H]5CO[C@@](Cn6nccn6)(c6nccs6)O5)cc4)CC3)cc2)c1=O (stereo partly shown) [Compound 78]	5 to 30 µM
CCc1cc(N2CCN(c3ccc(-n4cnn(C(C)CC)c4=O)cc3)CC2)ccc1OC[C@@H]1CO[C@@](Cn2nccn2)(c2ccc(Cl)cc2Cl)O1 (stereo partly shown) [Compound 80]	5 to 30 µM
CCc1cc(OC[C@@H]2CO[C@@](Cn3nccn3)(c3ccc(Cl)cc3Cl)O2)ccc1N1CCN(c2ccc(-n3cnn(C(C)CC)c3=O)cc2)CC1 (stereo partly shown) [Compound 81]	5 to 30 µM
CCC(C)n1ncn(-c2ccc(N3CCN(c4ccc(OC[C@@H]5CO[C@@](Cn6nccn6)(c6cccnc6)O5)cc4)CC3)cc2)c1=O (stereo partly shown) [Compound 82]	5 to 30 µM
CCC(C)n1ncn(-c2ccc(N3CCN(c4ccc(OC[C@@H]5CO[C@@](Cn6nccn6)(c6ccncc6)O5)cc4)CC3)cc2)c1=O (stereo partly shown) [Compound 83]	5 to 30 µM

From patent US9981956B2, “Small molecule inhibitors of fibrosis” (THE CALIFORNIA INSTITUTE FOR BIOMEDICAL RESEARCH, priority 2013, dated 2018)
